# Experimental data reported in patent publication US20250034216A1, “STEREOSELECTIVE COVALENT LIGANDS FOR ONCOGENIC AND IMMUNOLOGICAL PROTEINS” (The Scripps Research Institute, priority 2021, published 2025).
# How the values were obtained:
# [1] = target: T1, SF3B1 C1111 (Homo sapiens, UniProt O75533+Q7RTV0); experiment: Parallel reaction monitoring of IA-DTB labeled SF3B1 peptides; type: binding; conditions: 22Rv1 cells
# T1 construct: Cysteine engagement data from 22Rv1 cells treated; endogenous in cells; host or cells: 22Rv1
# Description: Dry peptide samples were reconstituted in a water/acetonitrile (85:15) mixture containing 0.1% formic acid (100 μl) and 15 μl was injected on to an EASY-Spray C18 loading column (5 μm particle size, 100 μm×2 cm; Fisher Scientific, DX164564) and resolved on a custom analytical column (2 μM particle size, 75 μm×15 cm) using a Dionex Ultimate 3000 nano-LC (Thermo Fisher Scientific). Peptides were separated over a 60-min gradient of 15 to 33% acetonitrile (0.1% formic acid) and analyzed on a Q-Exactive instrument (Thermo Fisher Scientific) using a parallel reaction monitoring method targeting the SF3B1 peptide containing C1111 (amino acids 1110-1149, missed tryptic, +3 charge state). Selected precursor ions were isolated and fragmented by high-energy collision dissociation and fragments were detected in the Orbitrap at 17,500 resolution.
# Raw data files were uploaded analyzed in Skyline (v.21.1.0.278) to determine the abundance of each peptide in vehicle-treated samples relative to inhibitor-treated samples. Peptide quantification was performed by calculating the sum of the peak areas corresponding to six fragment ions from each peptide. The peptides and fragment ions were preselected from in-house reference spectral libraries acquired in data-dependent acquisition mode to identify authentic spectra for each peptide.
# [2] = tested on: SF3B1 interacting proteins; experiment: SF3B1 co-immunoprecipitation-MS; type: cell-based, human; conditions: HEK293T cells, 5 μM WX-02-23 or 10 nM pladienolide B, 3 h
# Description: HEK293T cells were treated in situ with DMSO, 5 μM of WX-02-23/WX-02-43, or 10 nM pladienolide B for 3 hours. Cells were harvested, washed with ice-cold PBS, and lysed in ColP lysis buffer (0.5% NP-40, 100 mM EPPS, 150 mM NaCl, cOmplete protease inhibitor). Lysates centrifuged at 16,000 g for 3 minutes, normalized to 2.0 mg/mL and 500 μL of each lysate was aliquoted to a clean eppendorf tube.
# Lysates were incubated with 5 μL of anti-IgG or anti-SF3B1 (CST) for 2 hours at 4 C, followed by 1 hour with 25 μL of protein-A agarose beads. Bead were washed twice with ColP lysis buffer, and then twice with 100 mM EPPS, followed by elution with 8 M urea in EPPS at 65 C for 10 min. […] Samples were then trypsinized at 37 C overnight (2 ug of trypsin per sample), then TMT labeled and desalted.
# [3] = target: T2, PSME1_C106 and PSME2_C91 (Homo sapiens, UniProt Q06323); experiment: IA-DTB cysteine reactivity; type: binding; conditions: 22Rv1 cells, 20 μM, 1 h
# T2 construct: endogenous in cells; host or cells: 22Rv1
# Description: Sample preparation: Cells (adherent: 15 cm dishes, suspension: 2 million cells/mL) were treated with electrophilic probes in situ for indicated times and concentrations, washed with ice-cold PBS, and flash frozen in liquid nitrogen. Cell pellets were lysed by sonication (8 pulses, 40% power) in 500 μL ice-cold PBS supplemented with cOmplete protease inhibitors (1 tablet/10 mL of PBS). Whole cell lysates protein content was measured using a standard DC protein assay (Bio-Rad) and 500 μL (2 mg/mL protein content) were treated with 5 μL of 10 mM 1A-DTB (in DMSO) for 1 h at ambient temperature with occasional vortexing. Samples were methanol-chloroform precipitated with the addition of 500 μL ice-cold MeOH and 200 μL CHCl3, vortexed, and centrifuged (10 min, 10,000 g). Without disrupting the protein disk, both top and bottom layers were aspirated and the protein disk was washed with 1 mL ice-cold MeOH and centrifuged (10 min, 10,000 g). The pellets were allowed to air dry, and then re-suspended in 90 μL buffer (9 M urea, 10 mM DTT, 50 mM TEAB pH 8.5). […]
# Data processing: Cysteine engagement ratios (probe vs DMSO) were calculated for each peptide-spectra match by dividing each TMT reporter ion intensity by the average intensity for the channels corresponding to DMSO treatment. […]
# T1 sequence (O75533 whole entry): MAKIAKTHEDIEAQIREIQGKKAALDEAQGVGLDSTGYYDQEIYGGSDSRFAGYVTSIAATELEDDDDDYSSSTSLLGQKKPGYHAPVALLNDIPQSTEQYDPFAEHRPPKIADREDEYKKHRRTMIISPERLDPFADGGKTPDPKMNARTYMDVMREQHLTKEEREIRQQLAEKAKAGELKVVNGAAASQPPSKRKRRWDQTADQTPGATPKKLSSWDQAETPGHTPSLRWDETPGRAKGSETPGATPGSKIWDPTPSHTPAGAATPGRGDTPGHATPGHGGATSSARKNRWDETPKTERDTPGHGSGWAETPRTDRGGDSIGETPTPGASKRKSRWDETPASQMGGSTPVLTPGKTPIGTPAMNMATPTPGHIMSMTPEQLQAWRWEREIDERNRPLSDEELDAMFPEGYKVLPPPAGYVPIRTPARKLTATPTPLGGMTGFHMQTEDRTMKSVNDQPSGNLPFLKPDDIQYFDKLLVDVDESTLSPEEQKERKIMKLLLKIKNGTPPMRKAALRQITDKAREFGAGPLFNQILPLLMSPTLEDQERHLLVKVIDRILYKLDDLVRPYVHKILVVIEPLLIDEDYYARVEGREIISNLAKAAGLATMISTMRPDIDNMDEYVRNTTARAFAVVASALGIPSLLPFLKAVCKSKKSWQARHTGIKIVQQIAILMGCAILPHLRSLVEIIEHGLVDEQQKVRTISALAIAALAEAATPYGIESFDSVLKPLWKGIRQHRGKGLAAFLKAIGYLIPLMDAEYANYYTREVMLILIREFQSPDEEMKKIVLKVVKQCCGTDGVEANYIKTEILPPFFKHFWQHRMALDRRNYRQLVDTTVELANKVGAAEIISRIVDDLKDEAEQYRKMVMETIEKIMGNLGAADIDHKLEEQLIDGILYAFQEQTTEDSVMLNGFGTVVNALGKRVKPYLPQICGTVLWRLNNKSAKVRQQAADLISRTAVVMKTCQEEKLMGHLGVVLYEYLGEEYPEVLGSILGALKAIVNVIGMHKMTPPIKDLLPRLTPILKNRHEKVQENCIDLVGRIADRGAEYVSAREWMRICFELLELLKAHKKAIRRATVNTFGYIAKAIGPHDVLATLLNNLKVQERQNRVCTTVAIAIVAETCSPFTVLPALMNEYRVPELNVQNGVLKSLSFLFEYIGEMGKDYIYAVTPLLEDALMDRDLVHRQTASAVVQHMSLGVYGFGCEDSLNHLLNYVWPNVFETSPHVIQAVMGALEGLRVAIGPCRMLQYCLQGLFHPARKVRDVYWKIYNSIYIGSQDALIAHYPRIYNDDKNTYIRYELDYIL
# T1 sequence (Q7RTV0 whole entry): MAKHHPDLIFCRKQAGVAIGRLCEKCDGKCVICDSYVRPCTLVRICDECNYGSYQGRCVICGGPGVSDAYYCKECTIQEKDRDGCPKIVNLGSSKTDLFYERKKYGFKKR
# T1 sequence (Q15393 whole entry partner): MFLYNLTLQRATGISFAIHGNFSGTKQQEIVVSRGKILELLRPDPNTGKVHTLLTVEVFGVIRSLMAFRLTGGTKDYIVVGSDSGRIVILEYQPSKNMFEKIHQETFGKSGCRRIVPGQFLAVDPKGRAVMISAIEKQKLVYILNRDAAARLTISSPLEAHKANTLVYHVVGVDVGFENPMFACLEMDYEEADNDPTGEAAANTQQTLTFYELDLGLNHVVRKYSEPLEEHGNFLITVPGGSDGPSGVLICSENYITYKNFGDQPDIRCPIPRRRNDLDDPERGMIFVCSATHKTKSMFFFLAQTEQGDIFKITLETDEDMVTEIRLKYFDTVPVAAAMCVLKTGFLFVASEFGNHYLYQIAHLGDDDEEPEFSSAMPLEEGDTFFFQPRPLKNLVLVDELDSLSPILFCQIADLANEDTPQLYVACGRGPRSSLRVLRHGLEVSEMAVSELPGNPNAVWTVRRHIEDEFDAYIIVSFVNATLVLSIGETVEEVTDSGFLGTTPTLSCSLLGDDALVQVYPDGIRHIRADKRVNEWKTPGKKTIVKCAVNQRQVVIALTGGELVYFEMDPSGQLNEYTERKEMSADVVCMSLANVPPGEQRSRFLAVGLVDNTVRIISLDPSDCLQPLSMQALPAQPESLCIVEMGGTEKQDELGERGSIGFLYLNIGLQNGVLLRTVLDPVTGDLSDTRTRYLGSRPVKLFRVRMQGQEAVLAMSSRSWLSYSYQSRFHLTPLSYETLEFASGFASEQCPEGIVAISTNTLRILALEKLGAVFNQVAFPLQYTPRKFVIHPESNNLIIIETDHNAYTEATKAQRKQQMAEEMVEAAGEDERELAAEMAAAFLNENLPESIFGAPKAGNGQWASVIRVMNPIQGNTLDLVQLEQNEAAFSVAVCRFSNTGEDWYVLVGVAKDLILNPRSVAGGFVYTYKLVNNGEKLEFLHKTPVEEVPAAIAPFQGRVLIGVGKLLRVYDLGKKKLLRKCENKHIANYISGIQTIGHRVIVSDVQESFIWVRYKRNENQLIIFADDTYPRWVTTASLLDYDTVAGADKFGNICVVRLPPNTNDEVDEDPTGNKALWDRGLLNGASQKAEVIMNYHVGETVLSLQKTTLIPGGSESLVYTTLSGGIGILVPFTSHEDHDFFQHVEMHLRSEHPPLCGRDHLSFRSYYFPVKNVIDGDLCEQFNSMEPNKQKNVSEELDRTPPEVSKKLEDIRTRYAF
# T1 sequence (Q9BWJ5 whole entry partner): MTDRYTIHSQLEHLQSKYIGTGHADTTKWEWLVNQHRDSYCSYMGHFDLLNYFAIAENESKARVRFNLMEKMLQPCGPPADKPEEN
# T2 sequence (Q06323 whole entry): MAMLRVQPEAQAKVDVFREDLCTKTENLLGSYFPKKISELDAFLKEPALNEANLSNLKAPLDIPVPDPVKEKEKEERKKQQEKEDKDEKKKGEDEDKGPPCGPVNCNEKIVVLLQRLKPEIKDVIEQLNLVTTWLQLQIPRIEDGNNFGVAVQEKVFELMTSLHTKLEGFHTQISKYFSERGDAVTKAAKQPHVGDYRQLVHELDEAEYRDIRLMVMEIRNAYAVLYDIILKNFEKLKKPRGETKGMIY
IA-DTB labeling of other cysteines in SF3B1 [1],"IA-DTB reaction with SF3B1 C1111 ([1]; 20 μM, 24 h)",SMILES,SF3B1 interactions (DDX42 association) [2],IA-DTB reactivity of PSME1 C106 and PSME2 C91 [3]
did not affect other cysteines in SF3B1,stereoselectively blocked,"C=CC(=O)N1[C@H](c2ccc3c(c2)OCO3)c2[nH]c3ccccc3c2C[C@H]1C(=O)N1CCOCC1 [WX-02-23, 1-((1R,3S)-1-(benzo[d][1,3]dioxol-S-yl)-3-(morpholine-4-carbonyl)-1,3,4,9-tetrahydro-2H-pyrido [3,4-b]indol-2-yl)prop-2-en-1-one]",much greater extent,–
–,–,"C=CC(=O)N1C[C@H](c2ccc(Br)cc2)[C@@H]1C(=O)Nc1cccc2cccnc12 [MY-1B, (2R,3S)-1-acryloyl-3-(4-bromophenyl)-N-(quinolin-8-yl)azetidine-2-carboxamide]",–,"striking, stereoselective increases in reactivity"
